Results taken from US7875621B2, “Substituted 2-alkyl quinazolinone derivatives as PARP inhibitors” (Janssen Pharmaceutica NV, priority 2004, dated 2011).

biological target: PARP-1 enzyme (Homo sapiens, UniProt P09874); test: In vitro filtration assay for PARP-1 inhibitory activity; format: biochemical; details: not given
Protocol: In Vitro Filtration Assay for PARP-1 Inhibitory Activity
Compounds of the present invention were tested in an in vitro filtration assay assessing PARP-1 activity (triggered in the presence of nicked DNA) by means of its histone poly(ADP-ribosyl)ation activity using [^32P]-NAD as ADP-ribosyl donor. The radioactive ribosylated histones were precipitated by trichloroacetic acid (TCA) in 96-well filterplates and the incorporated [^32P] measured using a scintillation counter
A mixture of histones (stock solution: 5 mg/ml in H2O), NAD^+ (stock solution: 100 mM in H2O), and [^32P]-NAD^+ in incubation buffer (50 mM Tris/HCl, pH 8; 0.2 mM DTT; 4 mM MgCl2) was made. A mixture of the PARP-1 enzyme (5-10 μg/ml) and nicked DNA was also made. The nicked DNA was prepared as described in the in vitro SPA for PARP-1 inhibitory activity. […] of the PARP-1 enzyme/DNA mixture together with 1 μl of compound in DMSO and 25 μl of histones-NAD^+/[^32P]-NAD^+ mixture was added per well of a 96-well filterplate (0.45 μm, supplier Millipore). The final concentrations in the incubation mixture were 2 μg/ml for the histones, 0.1 mM for the NAD^+, […] (0.5 μC) for the [^32P]-NAD^+ and 2 μg/ml for the nicked DNA. Plates were incubated for 15 min. at room temperature and the reaction was terminated by the addition of 10 μl ice cold 100% TCA followed by the addition of 10 μl ice-cold BSA solution (1% in H2O). The protein fraction was allowed to precipitate for 10 min. at 4° C. and plates were vacuum filtered. The plates were subsequently washed with, for each well, 1 ml of 10% ice cold TCA, 1 ml of 5% ice cold TCA and 1 ml of 5% TCA at room temperature. Finally 100 μl of scintillation solution (Microscint 40, Packard) was added to each well and the plates were transferred to a TopCountNXT™ (supplier: Packard) for scintillation counting and values were expressed as counts per minute (cpm). For each experiment, controls (containing PARP-1 enzyme and DMSO without compound), a blank incubation (containing DMSO but no PARP-1 enzyme or compound) and samples (containing PARP-1 enzyme and compound dissolved in DMSO) were run in parallel. All compounds tested were dissolved and eventually further diluted in DMSO. In first instance, compounds were tested at a concentration of 10^−5M. […] In each test, the blank value was subtracted from both the control and the sample values. The control sample represented maximal PARP-1 enzyme activity. For each sample, the amount of cpm was expressed as a percentage of the mean cpm value of the controls. When appropriate, IC50-values (concentration of the drug, needed to reduce the PARP-1 enzyme activity to 50% of the control) were computed using linear interpolation between the experimental points just above and below the 50% level. Herein the effects of test compounds are expressed as pIC50 (the negative log value of the IC50-value). As a reference compound, 4-amino-1,8-naphthalimide was included to validate the filtration assay.

Sequence of PARP-1 enzyme (P09874 whole entry): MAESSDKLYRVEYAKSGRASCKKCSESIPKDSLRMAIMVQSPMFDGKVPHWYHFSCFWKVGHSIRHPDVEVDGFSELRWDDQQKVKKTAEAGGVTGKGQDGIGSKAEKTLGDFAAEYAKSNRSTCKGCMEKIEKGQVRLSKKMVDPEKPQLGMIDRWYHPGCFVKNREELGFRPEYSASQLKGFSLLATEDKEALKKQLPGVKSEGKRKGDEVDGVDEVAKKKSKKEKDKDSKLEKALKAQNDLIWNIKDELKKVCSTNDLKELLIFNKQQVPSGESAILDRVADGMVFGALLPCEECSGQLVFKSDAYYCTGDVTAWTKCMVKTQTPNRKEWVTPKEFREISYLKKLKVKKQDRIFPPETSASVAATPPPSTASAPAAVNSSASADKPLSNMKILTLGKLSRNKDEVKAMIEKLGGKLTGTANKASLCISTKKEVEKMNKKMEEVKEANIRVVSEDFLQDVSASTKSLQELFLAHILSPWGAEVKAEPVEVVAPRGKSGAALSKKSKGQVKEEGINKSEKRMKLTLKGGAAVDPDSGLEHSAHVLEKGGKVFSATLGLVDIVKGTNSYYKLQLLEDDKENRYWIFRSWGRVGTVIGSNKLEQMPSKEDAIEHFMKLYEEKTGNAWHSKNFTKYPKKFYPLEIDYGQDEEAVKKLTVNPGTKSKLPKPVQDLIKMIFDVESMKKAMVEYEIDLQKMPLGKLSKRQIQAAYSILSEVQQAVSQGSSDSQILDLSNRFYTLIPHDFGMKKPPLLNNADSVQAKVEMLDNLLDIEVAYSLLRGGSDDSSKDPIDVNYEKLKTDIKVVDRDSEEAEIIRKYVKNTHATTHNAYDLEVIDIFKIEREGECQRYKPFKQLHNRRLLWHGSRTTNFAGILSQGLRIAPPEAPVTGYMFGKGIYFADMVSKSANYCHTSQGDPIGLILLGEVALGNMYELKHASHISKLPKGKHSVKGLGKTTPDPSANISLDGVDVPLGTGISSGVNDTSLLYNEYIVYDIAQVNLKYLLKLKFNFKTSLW

Structure (SMILES) | IC50 [µM]
O=C1NC(CCN2CCC(n3c(=O)[nH]c4ccccc43)CC2)Nc2ccccc21 (stereo not drawn) [Compound 13] | 4.66

same assay, conditions: [32P]-NAD, nicked DNA, histones; read-out: in vitro filter assay PARP-1 pIC50 (converted)

Structure (SMILES) | IC50 [µM]
NC(=O)C1(c2ccccc2)CCN(CCCC2NC(=O)c3ccccc3N2)CC1 (stereo not drawn) [Compound 5] | 0.3
O=C1NCN(c2ccccc2)C12CCN(CCCc1nc3ccccc3c(=O)[nH]1)CC2 [Compound 2] | 4.98
NC(=O)C1(c2ccccc2)CCN(CCCc2nc3ccccc3c(=O)[nH]2)CC1 [Compound 4] | 0.0767
O=C1NC(CCN2CCC3(CC2)C(=O)NCN3c2ccccc2)Nc2ccccc21 (stereo not drawn) [Compound 6] | 2.14
O=C1NC(CCCN2CCC(n3c(=O)[nH]c4ccccc43)CC2)Nc2ccccc21 (stereo not drawn) [Compound 7] | 4.16
O=C(NC1CCN(CCCC2NC(=O)c3ccccc3N2)CC1)c1ccccc1 (stereo not drawn) [Compound 8] | 1.57

More lines, now with the values ahead:

IC50 [µM] | Structure (SMILES)
0.673 | O=C(NC1CCN(CCCc2nc3ccccc3c(=O)[nH]2)CC1)c1ccccc1 [Compound 12]
4.26 | O=C(CC1CCN(CCc2nc3ccccc3c(=O)[nH]2)CC1)c1ccc(F)cc1 [Compound 3]
5.71 | O=C(c1ccc(F)cc1)C1CCN(CCc2nc3ccccc3c(=O)[nH]2)CC1 [Compound 9]
0.546 | O=C(c1ccc(F)cc1)C1CCN(CCCc2nc3ccccc3c(=O)[nH]2)CC1 [Compound 14]
1.14 | NC(=O)C1(N2CCOCC2)CCN(CCCc2nc3ccccc3c(=O)[nH]2)CC1 [Compound 11]
